# Measurements reported in ChEMBL document CHEMBL4308851, “Alkyl-guanidine Compounds as Potent Broad-Spectrum Antibacterial Agents: Chemical Library Extension and Biological Characterization” (J Med Chem, 2018).
# Calls of active or inactive are those of the source. The calls are words filed in the database; no cut-off is given here.
# Columns and labels:
# Escherichia coli [1] = experiment: Antibacterial activity against Escherichia coli CCUG deficient in potA gene; type: functional, organism-based
# Escherichia coli [2] = experiment: Antibacterial activity against Escherichia coli CCUG deficient in potB gene; type: functional, organism-based
# Bacillus spizizenii = experiment: Antibacterial activity against Bacillus subtilis ATCC 6633 after 18 hrs by microdilution broth method; type: functional; settings: ATCC 6633, 18 h
# Enterococcus faecalis = experiment: Antibacterial activity against Enterococcus faecalis ATCC 19433 after 18 hrs by microdilution broth method; type: functional; settings: ATCC 19433, 18 h
# Staphylococcus aureus = experiment: Antibacterial activity against Staphylococcus aureus ATCC 25923 after 18 hrs by microdilution broth method; type: functional; settings: ATCC 25923, 18 h
# Streptococcus pyogenes = experiment: Antibacterial activity against Streptococcus pyogenes ATCC 12344 after 18 hrs by microdilution broth method; type: functional; settings: ATCC 12344, 18 h
# Acinetobacter baumannii [3] = experiment: Antibacterial activity against Acinetobacter baumannii ATCC 17978 after 18 hrs by microdilution broth method; type: functional; settings: ATCC 17978, 18 h
# Klebsiella pneumoniae [4] = experiment: Antibacterial activity against Klebsiella pneumoniae ATCC […] after 18 hrs by microdilution broth method; type: functional
# Pseudomonas aeruginosa [5] = experiment: Antibacterial activity against Pseudomonas aeruginosa ATCC 27853 after 18 hrs by microdilution broth method; type: functional; settings: ATCC 27853, 18 h
# Acinetobacter baumannii [6] = experiment: Antibacterial activity against Acinetobacter baumannii isolate AC-54/97 after 18 hrs by microdilution broth method; type: functional; settings: isolate AC-54/97, 18 h
# Burkholderia cepacia = experiment: Antibacterial activity against Burkholderia cepacia isolate SI-R2 after 18 hrs by microdilution broth method; type: functional; settings: isolate SI-R2, 18 h
# Enterobacter cloacae = experiment: Antibacterial activity against Enterobacter cloacae isolate VA-417/02 after 18 hrs by microdilution broth method; type: functional; settings: isolate VA-417/02, 18 h
# Klebsiella pneumoniae [7] = experiment: Antibacterial activity against Klebsiella pneumoniae isolate SI-081 after 18 hrs by microdilution broth method; type: functional; settings: isolate SI-081, 18 h
# [8] = tested on: Stenotrophomonas maltophilia; experiment: Antibacterial activity against Stenotrophomonas maltophilia isolate 634/08 after 18 hrs by microdilution broth method; type: functional; settings: isolate 634/08, 18 h
# Escherichia coli [9] = experiment: Bactericidal activity against Escherichia coli CCUG assessed as log reduction in CFU at 2 times MIC concentration after 1 hr by time kill assay; type: functional
# Escherichia coli [10] = experiment: Antibacterial activity against Escherichia coli MG1655 cultured in MHB supplemented with 10% human serum assessed as reduction in bacterial growth at 1 ug/ml after 24 hrs; type: functional, organism-based; settings: K-12 substr. MG1655
# Escherichia coli [11] = experiment: Ratio of MIC for Escherichia coli MG1655 cultured in MHB supplemented with 10% human serum after 24 hrs to MIC for Escherichia coli MG1655 cultured in absence of 10% human serum; type: functional, K-12 substr. MG1655
# Escherichia coli [12] = experiment: Antibacterial activity against Escherichia coli MG1655 cultured in MHB supplemented with 5 to 40 mg/ml at 1 to 2 ug/ml after 24 hrs; type: functional, organism-based; settings: K-12 substr. MG1655
# Escherichia coli [13] = experiment: Disruption of inner membrane integrity in Escherichia coli MG1655 assessed as induction of […] conversion at 256 ug/ml measured at 10 mins intervals for 1 hr; type: functional, organism-based; settings: K-12 substr. MG1655
# Pseudomonas aeruginosa [14] = experiment: Disruption of inner membrane integrity in Pseudomonas aeruginosa PAO1 ATCC 15692 co-expressing pMP2200::PrrnB plasmid assessed as induction of OPNG conversion at 256 ug/ml measured at 10 mins intervals for 1 hr; type: functional, organism-based
# Acinetobacter baumannii [15] = experiment: Disruption of inner membrane integrity in Acinetobacter baumannii ATCC 19606 co-expressing pMP2200::PrrnB plasmid assessed as induction of […] conversion at 256 ug/ml measured at 10 mins intervals for 1 hr; type: functional, organism-based; settings: ATCC 19606 = CIP 70.34 = JCM 6841
# Escherichia coli [16] = experiment: Disruption of Escherichia coli MG1655 ATCC 47076 outer membrane integrity assessed as induction of NPN uptake after 30 mins by NPN fluorescence-based assay; type: functional, organism-based; settings: K-12 substr. MG1655 ATCC 47076
# Pseudomonas aeruginosa [17] = experiment: Disruption of Pseudomonas aeruginosa PAO1 ATCC 15692 outer membrane integrity assessed as induction of NPN uptake after 30 mins by NPN fluorescence-based assay; type: functional, organism-based
# Acinetobacter baumannii [18] = experiment: Disruption of Acinetobacter baumannii ATCC 19606 outer membrane integrity assessed as induction of NPN uptake after 30 mins by NPN fluorescence-based assay; type: functional, organism-based; settings: ATCC 19606 = CIP 70.34 = JCM 6841
# Escherichia coli [19] = experiment: Antibiofilm activity against Escherichia coli MG1655 ATCC 47076 at half MIC concentration after 24 hrs by crystal violet-based assay; type: functional, organism-based; settings: K-12 substr. MG1655 ATCC 47076
# Pseudomonas aeruginosa [20] = experiment: Antibiofilm activity against Pseudomonas aeruginosa PAO1 ATCC 15692 at half MIC concentration after 24 hrs by crystal violet-based assay; type: functional, organism-based
# Acinetobacter baumannii [21] = experiment: Antibiofilm activity against Acinetobacter baumannii ATCC 19606 at half MIC concentration after 24 hrs by crystal violet-based assay; type: functional, organism-based; settings: ATCC 19606 = CIP 70.34 = JCM 6841
# Escherichia coli [22] = experiment: Antibiofilm activity against Escherichia coli MG1655 ATCC 47076 assessed as effect on biofilm 3D structures at half MIC concentration after 24 hrs by AO-staining based confocal microscopy; type: functional, organism-based; settings: K-12 substr. MG1655 ATCC 47076
# Pseudomonas aeruginosa [23] = experiment: Antibiofilm activity against Pseudomonas aeruginosa PAO1 ATCC 15692 assessed as effect on biofilm 3D structures at half MIC concentration after 24 hrs by AO-staining based confocal microscopy; type: functional, organism-based
# Acinetobacter baumannii [24] = experiment: Antibiofilm activity against Acinetobacter baumannii ATCC 19606 assessed as effect on biofilm 3D structures at half MIC concentration after 24 hrs by AO-staining based confocal microscopy; type: functional, organism-based; settings: ATCC 19606 = CIP 70.34 = JCM 6841
# [25] = Hemolytic activity against human erythrocytes assessed as induction of hemolysis at 64 ug/ml after 30 mins; type: cell-based, Erythrocyte; settings: read-out: Activity
# HeLa [26] = experiment: Cytotoxicity against human HeLa cells assessed as reduction in cell viability at 16 ug/ml after 24 hrs by celltox green-based assay
# HeLa [27] = experiment: Cytotoxicity against human HeLa cells assessed as reduction in cell viability at 256 ug/ml after 24 hrs by celltox green-based assay relative to control
# [28] = Metabolic stability in human liver microsomes at 50 uM after 60 mins in presence of NADPH by LC-UV-MS analysis; type: ADME, Microsome; settings: read-out: Stability
# [29] = 1-Octanol/Tris buffer distribution coefficient, log D of the compound at pH 7.4 by HPLC analysis; type: physicochemical
# Albumin [30] = target: T1, Albumin (Homo sapiens, UniProt P02768); experiment: Binding affinity to human serum albumin assessed as dissociation constant after 30 mins by fluorescence-based assay; type: ADME
# Albumin [31] = target: T1, Albumin; experiment: Binding affinity to human serum albumin assessed as Bmax after 30 mins by fluorescence-based assay; type: ADME; settings: isolated protein, 0.5 h
# [32] = Binding affinity to AGP (unknown origin) assessed as dissociation constant after 30 mins by fluorescence-based assay; type: ADME, Homo sapiens
# [33] = Binding affinity to AGP (unknown origin) assessed as Bmax after 30 mins by fluorescence-based assay; type: ADME; settings: human, isolated protein, 0.5 h
# [34] = Apparent permeability of the compound after 5 hrs by PAMPA; type: ADME
# Escherichia coli [35] = experiment: Antibacterial activity against Escherichia coli CCUG deficient in potD gene; type: functional, organism-based
# Escherichia coli [36] = experiment: Antibacterial activity against Escherichia coli CCUG deficient in potE gene; type: functional, organism-based
# Escherichia coli [37] = experiment: Antibacterial activity against Escherichia coli CCUG deficient in potF gene; type: functional, organism-based
# Escherichia coli [38] = experiment: Antibacterial activity against Escherichia coli CCUG deficient in potG gene; type: functional, organism-based
# Escherichia coli [39] = experiment: Antibacterial activity against Escherichia coli CCUG deficient in potH gene; type: functional, organism-based
# Escherichia coli [40] = experiment: Antibacterial activity against Escherichia coli CCUG deficient in potI gene; type: functional, organism-based
# Escherichia coli [41] = experiment: Antibacterial activity against Escherichia coli CCUG assessed as inhibition of microbial growth at >32 ug/ml measured up to 48 hrs; type: functional, organism-based
# in vitro [42] = settings: human, Caco-2
# Description: Apparent permeability across apical to basolateral side in human Caco2 cells at 10 uM after 120 mins by LC-MS/MS analysis
# in vitro [43] = settings: human, Caco-2; remark: listed apart in the source
# Description: Efflux ratio of apparent permeability in human Caco2 cells at 10 uM after 120 mins by LC-MS/MS analysis
# Escherichia coli [44] = experiment: Antibacterial activity against Escherichia coli CCUG after 18 hrs by microdilution broth method
# Escherichia coli [45] = experiment: Induction of cytoplasmic membrane depolarization in Escherichia coli at 16 ug/ml by DiSC3-5-fluorescence based assay
# T1 sequence (P02768 whole entry): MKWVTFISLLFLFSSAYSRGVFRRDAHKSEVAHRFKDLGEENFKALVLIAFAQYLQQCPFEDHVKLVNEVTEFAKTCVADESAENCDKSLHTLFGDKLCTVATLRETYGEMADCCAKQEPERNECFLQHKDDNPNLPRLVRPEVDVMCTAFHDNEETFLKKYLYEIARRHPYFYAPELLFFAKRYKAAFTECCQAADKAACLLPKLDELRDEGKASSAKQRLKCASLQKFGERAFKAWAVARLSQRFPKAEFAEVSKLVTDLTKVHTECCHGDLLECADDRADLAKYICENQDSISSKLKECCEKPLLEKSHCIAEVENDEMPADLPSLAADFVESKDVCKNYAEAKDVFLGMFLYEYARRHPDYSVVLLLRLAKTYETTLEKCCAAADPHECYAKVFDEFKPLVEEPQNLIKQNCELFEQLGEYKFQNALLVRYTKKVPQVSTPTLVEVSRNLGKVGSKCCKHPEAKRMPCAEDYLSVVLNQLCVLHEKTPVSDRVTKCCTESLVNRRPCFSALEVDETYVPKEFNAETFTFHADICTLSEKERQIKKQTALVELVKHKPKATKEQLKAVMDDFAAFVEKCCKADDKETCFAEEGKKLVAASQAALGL
smiles,measurement,setting,value
N=C(N)NCCCCCCCCN(CCCCCCCCNC(=N)NCC1CC1)C(=O)N(CCCCCCCCNC(=N)N)CCCCCCCCNC(=N)NCC1CC1,Activity,Escherichia coli [1],Active
same,Activity,Escherichia coli [2],Active
same,MIC,Bacillus spizizenii,0.5 µg/mL
same,MIC,Enterococcus faecalis,2 µg/mL
same,MIC,Staphylococcus aureus,2 µg/mL
same,MIC,Streptococcus pyogenes,1 µg/mL
same,MIC,Acinetobacter baumannii [3],8 µg/mL
same,MIC,Klebsiella pneumoniae [4],2 µg/mL
same,MIC,Pseudomonas aeruginosa [5],8 µg/mL
same,MIC,Acinetobacter baumannii [6],2 µg/mL
same,MIC,Burkholderia cepacia,16 µg/mL
same,MIC,Enterobacter cloacae,1 µg/mL
same,MIC,Klebsiella pneumoniae [7],2 µg/mL
same,MIC,[8],16 µg/mL
same,Activity,Escherichia coli [9],>=4 log10CFU/ml
same,growth inhibition (GI),Escherichia coli [10],inactive
same,Ratio,Escherichia coli [11],2
same,Activity,Escherichia coli [12],Active
same,Activity,Escherichia coli [13],inactive
same,Activity,Pseudomonas aeruginosa [14],inactive
same,Activity,Acinetobacter baumannii [15],inactive
same,Activity,Escherichia coli [16],Dose-dependent effect
same,Activity,Pseudomonas aeruginosa [17],Dose-dependent effect
same,Activity,Acinetobacter baumannii [18],Dose-dependent effect
same,Activity,Escherichia coli [19],inactive
same,Activity,Pseudomonas aeruginosa [20],inactive
same,Activity,Acinetobacter baumannii [21],inactive
same,Activity,Escherichia coli [22],inactive
same,Activity,Pseudomonas aeruginosa [23],inactive
same,Activity,Acinetobacter baumannii [24],inactive
same,"hemolysis at 0.5 h, 64 ug/ml",[25],0 to 7%
same,Activity,HeLa [26],Non-Toxic
same,Activity,HeLa [27],<= 60%
same,"remaining at 1 h, 50 µM",[28],> 99%
same,logD,[29],-0.79
same,Kd,Albumin [30],23.3 µM
same,Bmax,Albumin [31],14%
same,Kd,[32],0.11 µM
same,Bmax,[33],30.2%
same,Papp at 5 h,[34],1.6 ×10⁻⁶ cm/s
same,Activity,Escherichia coli [35],Active
same,Activity,Escherichia coli [36],Active
same,Activity,Escherichia coli [37],Active
same,Activity,Escherichia coli [38],Active
same,Activity,Escherichia coli [39],Active
same,Activity,Escherichia coli [40],Active
same,Activity,Escherichia coli [41],Active
same,"Papp A→B at 2 h, 10 µM",in vitro [42],0.19 ×10⁻⁶ cm/s
same,"efflux ratio at 2 h, 10 µM",in vitro [43],0.65
same,MIC,Escherichia coli [44],2 µg/mL
same,Activity,Escherichia coli [45],inactive
